According to ChEMBL document CHEMBL4020815 (J Med Chem, 2017):
Converted amounts (≈) assume the structure as drawn.

Legend:
[1] = Fraction unbound in CD-1 mouse plasma; assay type: ADME, cell-free
[2] = molecular target: T1, Bifunctional purine biosynthesis protein ATIC (Homo sapiens, UniProt P31939); assay: Inhibition of AICARFT in human NCI-H460 cells assessed as increase in ZMP levels using low folate media after 16 hrs by LC-MS method; assay type: cell-based
[3] = Plasma concentration in CD-1 mouse at 10 mg/kg, po after 1 hr by LC-MS/MS method; assay type: ADME, organism-based
[4] = molecular target: T1, Bifunctional purine biosynthesis protein ATIC; assay: Inhibition of human full length N-terminal His-tagged AICARFT expressed in Escherichia coli BL21 (DE3) using ZMP/10-formyltetrahydrofolate as substrate assessed as decrease in IMP levels after 1 hr by mass spectrometric method
[5] = Permeability across apical to basolateral side in MDCK cells at 20 uM; assay type: ADME, cell-based, Canis lupus familiaris; details: dog
[6] = system: Mus musculus; assay: In vivo inhibition of AICARFT in tumor of low folate diet fed nude mouse xenografted with human NCI-H460 cells assessed as increase in intratumoral ZMP levels at 0.3 to 30 mg/kg after 4 hrs relative to vehicle-treated control; assay type: functional
[7] = system: Mus musculus; assay: Unbound clearance in CD-1 mouse at 5 mg/kg, iv by LC-MS/MS method; assay type: ADME, organism-based; details: in vivo
[8] = system: Mus musculus; assay: Unbound AUC in CD-1 mouse at 5 mg/kg, po by LC-MS/MS method; assay type: ADME, organism-based; details: in vivo
[9] = system: Mus musculus; assay: In vivo inhibition of AICARFT in tumor of low folate diet fed nude mouse xenografted with human NCI-H460 cells assessed as increase in circulating AICAr levels at 0.3 to 30 mg/kg after 4 hrs relative to vehicle-treated control; assay type: functional
[10] = Oral bioavailability in CD-1 mouse at 5 mg/kg by LC-MS/MS method; assay type: ADME, organism-based; details: in vivo
[11] = Half life in CD-1 mouse at 5 mg/kg, po by LC-MS/MS method; assay type: ADME, organism-based; details: in vivo
[12] = system: Mus musculus; assay: Unbound Cmax in CD-1 mouse at 5 mg/kg, po by LC-MS/MS method; assay type: ADME, organism-based; details: in vivo
[13] = system: Mus musculus; assay: Unbound volume of distribution at steady state in CD-1 mouse at 5 mg/kg, iv by LC-MS/MS method; assay type: ADME, organism-based; details: in vivo
[14] = Oral bioavailability in CD-1 mouse at 10 mg/kg by LC-MS/MS method; assay type: ADME, organism-based; details: in vivo
[15] = Equilibrium aqueous solubility of the compound at pH 6 after 20 hrs by HPLC method; assay type: physicochemical
[16] = Equilibrium aqueous solubility of the compound at pH 7.5 after 20 hrs by HPLC method; assay type: physicochemical
[17] = Equilibrium aqueous solubility of the compound at pH 2 after 20 hrs by HPLC method; assay type: physicochemical
[18] = Lipophilicity, log D of the compound at pH 7; assay type: physicochemical; details: buffer
[19] = Dissociation constant, pKa of the compound; assay type: physicochemical
[20] = AUC in CD-1 mouse at 10 mg/kg, po by LC-MS/MS method; assay type: ADME, organism-based; details: in vivo
[21] = Clearance in CD-1 mouse at 1 mg/kg, iv by LC-MS/MS method; assay type: ADME, organism-based; details: in vivo
[22] = system: Mus musculus; assay: Toxicity in athymic nude mouse xenografted with human MDA-MB-231met2 cells assessed as body weight loss at 5 mg/kg, iv qd administered for 5 days; assay type: organism-based; details: in vivo, 120 h
[23] = system: Mus musculus; assay: Toxicity in athymic nude mouse xenografted with human MDA-MB-231met2 cells assessed as mortality at 5 mg/kg, iv qd administered for 5 days; assay type: organism-based; details: in vivo, 120 h
[24] = Antitumor activity against human MDA-MB-231met2 cells xenografted in athymic nude mouse assessed as tumor volume at 5 mg/kg, iv qd administered for 5 days measured after 9 days relative to control; assay type: functional
[25] = molecular target: T1, Bifunctional purine biosynthesis protein ATIC; assay: Inhibition of human AICARFT

T1 sequence (P31939 whole entry): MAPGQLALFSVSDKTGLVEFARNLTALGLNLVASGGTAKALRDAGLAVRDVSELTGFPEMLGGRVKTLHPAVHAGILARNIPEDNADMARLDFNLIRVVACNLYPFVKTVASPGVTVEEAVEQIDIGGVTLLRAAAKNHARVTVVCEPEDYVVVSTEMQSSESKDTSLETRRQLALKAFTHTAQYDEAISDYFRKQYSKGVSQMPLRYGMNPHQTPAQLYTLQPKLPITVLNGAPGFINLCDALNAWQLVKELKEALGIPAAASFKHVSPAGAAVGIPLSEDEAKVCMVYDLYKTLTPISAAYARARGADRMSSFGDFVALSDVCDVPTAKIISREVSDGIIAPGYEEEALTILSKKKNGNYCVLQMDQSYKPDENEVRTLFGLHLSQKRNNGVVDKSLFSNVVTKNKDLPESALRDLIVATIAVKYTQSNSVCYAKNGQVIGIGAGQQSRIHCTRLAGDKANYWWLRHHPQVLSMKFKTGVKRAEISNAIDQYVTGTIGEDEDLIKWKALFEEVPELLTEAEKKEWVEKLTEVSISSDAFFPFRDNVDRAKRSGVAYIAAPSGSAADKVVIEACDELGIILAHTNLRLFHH

CCC1(C)CC(c2ccc(S(=O)(=O)Nc3cc4c(=O)[nH]ccc4cc3F)s2)=CNC1=O (stereo not given)
fraction unbound [1]: < 0.03 | EC50 [2]: 4 nM | concentration at 1 h [3]: 10.5 µM | IC50 [4]: < 5 nM

N#Cc1ccc(S(=O)(=O)Nc2ccccc2)cc1
IC50 [4]: > 100000 nM

O=c1ccc(-c2ccc(S(=O)(=O)Nc3cc4c(=O)[nH]ccc4cc3F)s2)c[nH]1
fraction unbound [1]: 0.05 | EC50 [2]: 62 nM | concentration at 1 h [3]: 1.7 µM | permeability [5]: 0.09% | IC50 [4]: < 5 nM

O=c1[nH]ccc2cc(F)c(NS(=O)(=O)c3ccc(N4C[C@H](O)C(F)(F)C4)s3)cc12
fraction unbound [1]: 0.02 | EC50 [2]: 31 nM | concentration at 1 h [3]: 19.3 µM | permeability [5]: 0.34% | IC50 [4]: 13 nM

O=c1[nH]ccc2cc(F)c(NS(=O)(=O)c3ccc(N4C[C@@H](O)[C@@H](F)C4)s3)cc12 (stereo in doubt)
fold change (FC) [6]: >100 | CL free [7]: 44 mL/min/kg | fAUC [8]: 1.52 µM·h | fraction unbound [1]: 0.05 | fold change (FC) [9]: 80 | EC50 [2]: 7.9 nM | bioavailability [10]: 33% | half-life [11]: 2.8 h | concentration at 1 h [3]: 9.1 µM | permeability [5]: 0.18% | fCmax [12]: 232 nM | Vduss [13]: 9 L/kg | IC50 [4]: 7.8 nM

N#Cc1ccc(S(=O)(=O)Nc2ccc3nc(N)[nH]c(=O)c3c2)cc1
IC50 [4]: 18100 nM

N#Cc1ccc(S(=O)(=O)Nc2cc3c(=O)[nH]ccc3cc2F)cc1
bioavailability [14]: 79% | solubility thermodynamic at 20 h [15]: 20 µg/mL (≈ 58.3 µM) | solubility thermodynamic at 20 h [16]: 230 µg/mL (≈ 670 µM) | EC50 [2]: 1810 nM | solubility thermodynamic at 20 h [17]: 10 µg/mL (≈ 29.1 µM) | logD [18]: 0.6 | pKa [19]: 5.97 | AUC [20]: 55800 ng·h/mL | permeability [5]: 0.35% | clearance [21]: 2.34 mL/min/kg | IC50 [4]: 723 nM

O=c1[nH]ccc2cc(F)c(NS(=O)(=O)c3ccc(N4CCC[C@H](O)C4)s3)cc12
fraction unbound [1]: 0.03 | EC50 [2]: 18 nM | concentration at 1 h [3]: 6.7 µM | permeability [5]: 0.17% | IC50 [4]: 18 nM

O=c1[nH]ccc2cc(F)c(NS(=O)(=O)c3ccc(N4C[C@@H](O)C(F)(F)C4)s3)cc12
fold change (FC) [6]: >100 | CL free [7]: 50 mL/min/kg | fAUC [8]: 2.11 µM·h | fraction unbound [1]: 0.03 | fold change (FC) [9]: 80 | EC50 [2]: 27 nM | bioavailability [10]: 55% | half-life [11]: 3.2 h | concentration at 1 h [3]: 33 µM | permeability [5]: 0.28% | fCmax [12]: 293 nM | Vduss [13]: 15 L/kg | IC50 [4]: 12 nM

CN(Cc1cnc2nc(N)nc(N)c2n1)c1ccc(C(=O)N[C@@H](CCC(=O)O)C(=O)O)cc1 [METHOTREXATE]
Activity [22]: Non-Toxic | Activity [23]: Non-Toxic | Activity [24]: 88%

O=c1[nH]ccc2cc(F)c(NS(=O)(=O)c3ccc(N4CCC[C@@H](O)C4)s3)cc12
fraction unbound [1]: 0.03 | EC50 [2]: 68 nM | concentration at 1 h [3]: 1.7 µM | permeability [5]: 0.17% | IC50 [4]: 26 nM

N#Cc1ccc(S(=O)(=O)Nc2ccc3cc[nH]c(=O)c3c2)cc1
bioavailability [14]: 43% | solubility thermodynamic at 20 h [15]: 40 µg/mL (≈ 123 µM) | solubility thermodynamic at 20 h [16]: 160 µg/mL (≈ 492 µM) | EC50 [2]: 567 nM | solubility thermodynamic at 20 h [17]: 30 µg/mL (≈ 92.2 µM) | logD [18]: 1.7 | pKa [19]: 6.93 | AUC [20]: 16100 ng·h/mL | permeability [5]: 0.55% | clearance [21]: 4.47 mL/min/kg | IC50 [4]: 608 nM

O=c1[nH]ccc2cc(F)c(NS(=O)(=O)c3ccc(N4CC[C@H](O)C4)s3)cc12
fraction unbound [1]: 0.05 | concentration at 1 h [3]: 4.7 µM | permeability [5]: 0.29%

CC1(C)CC(c2ccc(S(=O)(=O)Nc3cc4c(=O)[nH]ccc4cc3F)s2)=CNC1=O
CL free [7]: 19 mL/min/kg | fAUC [8]: 2.159 µM·h | fraction unbound [1]: < 0.02 | EC50 [2]: 10 nM | bioavailability [10]: 23% | half-life [11]: 5.2 h | concentration at 1 h [3]: 30.6 µM | permeability [5]: 0.09% | fCmax [12]: 187 nM | Vduss [13]: 9 L/kg | IC50 [4]: < 5 nM

N#Cc1ccc(S(=O)(=O)Nc2cccc(C(N)=O)c2)cc1
IC50 [4]: 90000 nM

O=c1[nH]ccc2cc(F)c(NS(=O)(=O)c3ccc(N4CCC(O)CC4)s3)cc12
fraction unbound [1]: 0.05 | EC50 [2]: 21 nM | concentration at 1 h [3]: 4 µM | permeability [5]: 0.25% | IC50 [4]: 13 nM

O=C1NC(=O)c2cc(NS(=O)(=O)c3ccc(Cl)cc3)ccc21
IC50 [4]: 34800 nM

Nc1nc2ccc(NS(=O)(=O)c3ccc(C(=O)N[C@@H](CCC(=O)O)C(=O)O)cc3)cc2c(=O)[nH]1
Ki [25]: 6 nM | IC50 [4]: 1000 to 5000 nM

O=c1[nH]ccc2cc(F)c(NS(=O)(=O)c3ccc(N4C[C@@H](F)[C@@H](O)C4)s3)cc12 (stereo in doubt)
fraction unbound [1]: 0.05 | EC50 [2]: 17 nM | concentration at 1 h [3]: 12 µM | permeability [5]: 0.17% | IC50 [4]: 20 nM
